Measured values from patent US6913708B2, “Cholesteric liquid crystal drying process and solvent” (3M Innovative Properties Company, priority 2003, dated 2005).

Experiment: Solubility of cholesteric liquid crystal monomer in hot (boiling) solvents
Format: physicochemical
Experimental: Comparison of the Solubility of Various Monomers in 1,3-dioxolane and other Solvents.
4-(2-Acryloyloxy-ethoxy)-benzoic acid 4′-cyano-biphenyl-4-yl ester is a cholesteric liquid crystal monomer with the structure given below and can be prepared as described in European Patent Application Publication No. 834754, incorporated herein by reference. [drawing 2]
4-(2-Acryloyloxy-ethoxy)-benzoic acid 4′-cyano-biphenyl-4-yl ester was dissolved in hot (boiling) tetrahydrofuran and hot 1,3-dioxolane. Only 20% of the monomer dissolved in the tetrahydrofuran, while 40% dissolved in the 1,3-dioxolane.

## C=CC(=O)OCCOc1ccc(C(=O)Oc2ccc(-c3ccc(C#N)cc3)cc2)cc1 [4-(2-Acryloyloxy-ethoxy)-benzoic acid 4′-cyano-biphenyl-4-yl ester]
Hot 1,3-dioxolane
  fraction of the monomer dissolved: 40%
Hot (boiling) tetrahydrofuran
  fraction of the monomer dissolved: 20%
